Values quoted from earlier work as cited in US20130243825A1, “COMPOSITIONS AND METHODS FOR THE TREATMENT OF SKIN DISEASES” (priority 2012, published 2013).
Entries after “also recorded” stand apart in the source; their conditions may differ.

Assays:
[1] = system: standardized wounds created by sequential tape stripping; settings: applied to a wound for 15 seconds, 24 subjects; Pagnoni et al. 2004
vasoconstriction = settings: seven potency groups, I ultra high to VII least potent; Ference and Last 2009

stinging/burning sensation [1] | Compound | potency group by strength in standard vasoconstriction assay (vasoconstriction)
stung | CC(C)O [70% isopropyl alcohol, isopropyl alcohol] | 
 | CC(=O)OCC(=O)[C@@]12OC(C)(C)O[C@@H]1C[C@H]1[C@@H]3C[C@H](F)C4=CC(=O)C=C[C@]4(C)[C@@]3(F)[C@@H](O)C[C@@]12C [Fluocinonide 0.05%, Fluocinonide] | High (II)
 | C[C@]12CCC(=O)C=C1CC[C@@H]1[C@@H]2[C@@H](O)C[C@@]2(C)[C@H]1CC[C@]2(O)C(=O)CO [Hydrocortisone 1%, 2.5%, Hydrocortisone] | Least potent (VII)
 | C[C@@H]1C[C@H]2[C@@H]3CCC4=CC(=O)C=C[C@]4(C)[C@@]3(Cl)[C@@H](O)C[C@]2(C)[C@@]1(OC(=O)c1ccco1)C(=O)CCl [Mometasone furoate 0.1%, Mometasone furoate] | Medium (IV and V)
 | CCC(=O)O[C@]1(C(=O)CCl)[C@@H](C)C[C@H]2[C@@H]3CCC4=CC(=O)C=C[C@]4(C)[C@@]3(F)[C@@H](O)C[C@@]21C [Clobetasol propionate 0.05%, Clobetasol propionate] | Ultra high (I)
 | CCC(=O)O[C@]1(C(=O)SCF)[C@H](C)C[C@H]2[C@@H]3C[C@H](F)C4=CC(=O)C=C[C@]4(C)[C@@]3(F)[C@@H](O)C[C@@]21C [Fluticasone propionate 0.005%, Fluticasone propionate] | Medium to high (III)
 | CC1(C)O[C@@H]2C[C@H]3[C@@H]4C[C@H](F)C5=CC(=O)C=C[C@]5(C)[C@@]4(F)[C@@H](O)C[C@]3(C)[C@]2(C(=O)CO)O1 [Fluocinolone acetonide 0.025%, Fluocinolone acetonide] | Medium (IV and V)
 | CCCC(=O)O[C@]1(C(=O)CO)CC[C@H]2[C@@H]3CCC4=CC(=O)CC[C@]4(C)[C@H]3[C@@H](O)C[C@@]21C [Hydrocortisone butyrate 0.1%, Hydrocortisone butyrate] | Medium (IV and V); also recorded: Low (VI)
 | CCCC(=O)O[C@]1(C(=O)COC(=O)CC)CC[C@H]2[C@@H]3CCC4=CC(=O)CC[C@]4(C)[C@H]3[C@@H](O)C[C@@]21C [Hydrocortisone probutate 0.1%, Hydrocortisone probutate] | Medium (IV and V)
 | CCC(=O)O[C@]1(C(=O)SCF)[C@H](C)C[C@H]2[C@@H]3C[C@H](F)C4=CC(=O)C=C[C@]4(C)[C@@]3(F)[C@@H](O)C[C@@]21C [Fluticasone propionate 0.05%, Fluticasone propionate] | Medium (IV and V)
 | CC1(C)O[C@@H]2C[C@H]3[C@@H]4CCC5=CC(=O)C=C[C@]5(C)[C@H]4[C@@H](O)C[C@]3(C)[C@]2(C(=O)CO)O1 [Desonide 0.05%, Desonide] | Low (VI)
 | C[C@@H]1C[C@H]2[C@@H]3CCC4=CC(=O)C=C[C@]4(C)[C@@]3(F)[C@@H](O)C[C@]2(C)[C@H]1C(=O)CO [Desoximetasone 0.05%, Desoximetasone] | Medium (IV and V)
 | Augmented betamethasone dipropionate | Ultra high (I); also recorded: High (II)
 | CCC(=O)OCC(=O)[C@@]1(OC(=O)CC)[C@H](C)C[C@H]2[C@H]3[C@H]([C@@H](O)C[C@@]21C)[C@@]1(C)C=CC(=O)C=C1C[C@H]3Cl [Alclometasone dipropionate 0.05%, Alclometasone dipropionate] | Low (VI)
 | CCCCC(=O)O[C@]1(C(=O)CO)[C@@H](C)C[C@H]2[C@@H]3CCC4=CC(=O)C=C[C@]4(C)[C@@]3(F)[C@@H](O)C[C@@]21C [Betamethasone valerate 0.1%, Betamethasone valerate] | Medium (IV and V)
 | C[C@@H]1C[C@H]2[C@@H]3CCC4=CC(=O)C=C[C@]4(C)[C@@]3(F)[C@@H](O)C[C@]2(C)[C@H]1C(=O)CO [Desoximetasone 0.25%, Desoximetasone] | High (II)
 | CC1(C)O[C@@H]2C[C@H]3[C@@H]4CCC5=CC(=O)CC[C@]5(C)[C@@]4(F)[C@@H](O)C[C@]3(C)[C@]2(C(=O)CCl)O1 [Halcinonide 0.1%, Halcinonide] | High (II)
 | CC(=O)OCC(=O)[C@@]12OC(C)(C)O[C@@H]1C[C@H]1[C@@H]3C[C@H](F)C4=CC(=O)C=C[C@]4(C)[C@@]3(F)[C@@H](O)C[C@@]12C [Fluocinonide 0.1%, Fluocinonide] | Ultra high (I)
 | CCCCC(=O)O[C@]1(C(=O)CO)CC[C@H]2[C@@H]3CCC4=CC(=O)CC[C@]4(C)[C@H]3[C@@H](O)C[C@@]21C [Hydrocortisone valerate 0.2%, Hydrocortisone valerate] | Medium (IV and V)
